Six molecules from patent publication US20140128352A1, “COMPOUNDS AND METHODS FOR MODULATING MITOCHONDRIAL METABOLISM AND REACTIVE OXYGEN SPECIES PRODUCTION” (Buck Institute for Research on Aging, priority 2012, published 2014) can be followed below.

Entries after “also recorded” stand apart in the source; their conditions may differ. Like-named read-outs stand apart in the source and are kept apart here.

Assay [1] has as its system ubiquinone binding site of complex I (IQ). Briefly: High-throughput screen: ROS production from ubiquinone binding site of complex I (IQ), isolated skeletal muscle mitochondria. Format: biochemical, rat. The note with it: percent change in ROS from DMSO controls.
Description: (§1) Skeletal muscle mitochondria were isolated from 5-8 week old female Wistar rats (Harlan Laboratories). Minced muscle was homogenized in buffer containing bacterial protease Type VIII prior to differential centrifugation to separate mitochondria from other tissue components. Unless otherwise stated, freshly isolated muscle mitochondria were assayed in buffer containing 120 mM KCl, 5 mM HEPES, 1 mM EGTA, 0.3% (w/v) bovine serum albumin. Where indicated, CaCl2 was added to yield a final free concentration of 250 nM calcium at pH 7.0 at 37° C.
(§2) Compounds (10 mM in DMSO) were randomly selected from a library of 24,000 compounds obtained from ChemBridge and curated by the lab of Robert Hughes at the Buck Institute. Master screening plates were prepared using a Biomek FX liquid handling workstation (Beckman) to transfer 1 μL of each compound into individual wells on 96-well storage plates (80 compounds per plate). Master plates were sealed with foil and stored at −80° C. Just prior to use, plates were brought to room temperature and diluted 300-fold with standard buffer (13.3X=33.3 μM). To monitor the performance of each assay throughout screening and to provide intra-plate normalization reference points, DMSO negative controls and known mitochondrial inhibitor positive controls were included on each Master compound plate.
(§3) Total amounts of superoxide and H2O2 production were determined fluorometrically as H2O2, without distinguishing between them, in the presence of exogenous superoxide dismutase (25 units/mL final), horseradish peroxidase (1 unit/mL final), and Amplex UltraRed (25 μM final) as described (Affourtit, C. et al. (2012) Measurement of proton leak and electron leak in isolated mitochondria. Methods Mol. Biol. 810: 165-82). Just prior to use, a bulk 3.3X solution was made in standard buffer and distributed into a 2 mL deep well 96-well transfer plate.
To assess the effects of a compound on ROS production from the ubiquinone binding site of complex I (IQ), Start Solution containing 5 mM succinate was distributed into standard 96-well transfer plates. A Biomek FX workstation was programmed to dispense solutions into black 96-well assay plates. Solutions were dispensed to all assay plates in the following order: ROS Detection solution described in Example 3, Mitochondria solution described in Example 1 to a final concentration of 0.1 mg/ml, and Compound dilutions described in Example 2. Duplicate assay plates were made and each was initiated by the addition of 3.3X Start solution containing 5 mM succinate. Plates were incubated in the dark at room temperature for 30-40 minutes before acquiring endpoint fluorescence using a Victor 3V plate reader (Perkin Elmer) equipped with 550/590 nm excitation/emission filters.
The fluorescence values in each well were scaled as the percent change from the intra-plate DMSO controls with the appropriate inhibitor positive controls defined as −100%. Following initial scaling, intra-plate normalized values were subjected to Tukey's two-way median polish to remove row and column dependent positional effects (Malo et al, 2006).
The target in assay [2] is T1, flavin binding site of complex I (IF) (Rattus norvegicus, UniProt Q5XIH3).
T1 construct: freshly isolated muscle mitochondria were assayed; from tissue; host or cells: rat skeletal muscle mitochondria (Wistar, Harlan Laboratories)
Briefly: High-throughput screen: ROS production from flavin binding site of complex I (IF). The format is biochemical.

Assay [3] concerns the target T2, outer ubiquinone binding site of complex III (IIIQO) (Rattus norvegicus, UniProt P00159+P20788).
T2 construct: freshly isolated muscle mitochondria were assayed; from tissue; host or cells: rat skeletal muscle mitochondria (Wistar, Harlan Laboratories)
As to the kind of experiment: High-throughput screen: ROS production from outer ubiquinone binding site of complex III (IIIQO). The note with it: for IIIQO: Table 8. The format is biochemical.
Description: as §1, §2, §3
To assess the effects of a compound on ROS production from the outer ubiquinone binding site of complex III (IIIQO), Start Solution containing 5 mM succinate, 4 μM rotenone and 2.5 μM antimycin A was distributed into standard 96-well transfer plates. A Biomek FX workstation was programmed to dispense solutions into black 96-well assay plates. Solutions were dispensed to all assay plates in the following order: ROS Detection solution described in Example 3, Mitochondria solution described in Example 1 to a final concentration of 0.1 mg/ml, and Compound dilutions described in Example 2. Duplicate assay plates were made and each was initiated by the addition of 3.3X Start solution containing 5 mM succinate, 4 μM rotenone and 2.5 μM antimycin A. Plates were incubated in the dark at room temperature for 30-40 minutes before acquiring endpoint fluorescence using a Victor 3V plate reader (Perkin Elmer) equipped with 550/590 nm excitation/emission filters.
The fluorescence values in each well were scaled as the percent change from the intra-plate DMSO controls with the appropriate inhibitor positive controls defined as −100%. Following initial scaling, intra-plate normalized values were subjected to Tukey's two-way median polish to remove row and column dependent positional effects (Malo et al., 2006).

For assay [4], the target named is T3, succinate dehydrogenase/complex II (SDH) (Rattus norvegicus, UniProt P21913+Q641Z9+Q6PCT8+Q920L2).
T3 construct: freshly isolated muscle mitochondria were assayed; from tissue; host or cells: rat skeletal muscle mitochondria (Wistar, Harlan Laboratories)
Briefly: High-throughput screen: ROS production from succinate dehydrogenase/complex II (SDH). The format is biochemical. The note with it: percent change in ROS from DMSO controls; for inhibition at 2.5 µM: Table 7.

Assay [5] concerns the target T4, glycerol-3-phosphate dehydrogenase (GPDH) (Rattus norvegicus, UniProt P35571).
T4 construct: The activity of GPDH in intact mitochondria (0.3 mg/mL) was measured; from tissue; host or cells: rat skeletal muscle mitochondria (Wistar, Harlan Laboratories)
T4 sequence (P35571 43-727): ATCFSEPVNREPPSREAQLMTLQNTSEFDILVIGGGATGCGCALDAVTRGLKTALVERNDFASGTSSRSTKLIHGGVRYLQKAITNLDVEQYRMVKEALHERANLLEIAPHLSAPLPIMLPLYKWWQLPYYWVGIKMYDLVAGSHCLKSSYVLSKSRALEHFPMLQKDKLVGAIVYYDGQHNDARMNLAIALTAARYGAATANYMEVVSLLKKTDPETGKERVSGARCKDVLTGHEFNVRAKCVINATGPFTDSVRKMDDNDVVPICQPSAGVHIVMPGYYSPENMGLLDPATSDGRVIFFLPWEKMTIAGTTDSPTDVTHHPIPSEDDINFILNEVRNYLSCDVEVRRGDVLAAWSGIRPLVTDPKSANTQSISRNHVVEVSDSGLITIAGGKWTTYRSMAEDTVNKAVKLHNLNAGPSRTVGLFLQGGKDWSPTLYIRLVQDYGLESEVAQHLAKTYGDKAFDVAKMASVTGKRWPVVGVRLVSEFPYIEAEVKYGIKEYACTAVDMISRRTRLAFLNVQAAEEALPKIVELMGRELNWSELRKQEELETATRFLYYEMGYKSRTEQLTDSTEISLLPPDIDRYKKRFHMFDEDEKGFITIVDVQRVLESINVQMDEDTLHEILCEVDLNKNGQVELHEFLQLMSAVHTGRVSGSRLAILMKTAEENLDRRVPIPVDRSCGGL
Briefly: High-throughput screen: ROS production from glycerol-3-phosphate dehydrogenase (GPDH). Format: biochemical. Further details: inhibition: dose or concentration left out as unconfirmed.
Description: as §1, §2, §3
To assess the effects of a compound on ROS production from glycerol-3-phosphate dehydrogenase (GPDH), Start Solution containing 25 mM glycerol phosphate, 4 μM rotenone, 2.5 μM antimycin A, 1 mM malonate, 2 μM myxothiazol was distributed into standard 96-well transfer plates. A Biomek FX workstation was programmed to dispense solutions into black 96-well assay plates. Solutions were dispensed to all assay plates in the following order: ROS Detection solution described in Example 3, Mitochondria solution described in Example 1 to a final concentration of 0.2 mg/ml, and Compound dilutions described in Example 2. Duplicate assay plates were made and each was initiated by the addition of 3.3X Start solution containing 25 mM glycerol phosphate, 4 μM rotenone, 2.5 μM antimycin A, 1 mM malonate, 2 μM myxothiazol. Plates were incubated in the dark at room temperature for 30-40 minutes before acquiring endpoint fluorescence using a Victor 3V plate reader (Perkin Elmer) equipped with 550/590 nm excitation/emission filters.
The fluorescence values in each well were scaled as the percent change from the intra-plate DMSO controls. […] Following initial scaling, intra-plate normalized values were subjected to Tukey's two-way median polish to remove row and column dependent positional effects (Malo et al., 2006).

A further assay has as its target T5, site IF (Rattus norvegicus, UniProt Q5XIH3).
T5 construct: freshly isolated muscle mitochondria were assayed; from tissue; host or cells: rat skeletal muscle mitochondria (Wistar, Harlan Laboratories)
Briefly: Retest of IF ROS production (expanded microplate panel). Format: biochemical. The method, then: Compounds identified as site-selective hits as well as structural analogs were re-sourced from ChemBridge and dissolved in DMSO as 80 mM stocks. Master Titration Plates were prepared manually by serially diluting 80 mM compound stocks between 0.08 and 80 mM on 96-well microplates. Four compounds were titrated in duplicate on each plate. Additional DMSO controls were interspersed across these plates to serve as local normalization controls during analysis since two-way median polishing was not appropriate. Just prior to use, compounds were diluted 100-fold with standard buffer (10X). The same known inhibitor positive controls were included on each plate as during high-throughput screening. The five core ROS assays and single ΔΨm assay were carried out as in the initial high-throughput screen. In addition, several assays were included to help validate the specificity of the compounds for a given site of production. […] The use of different substrates was designed to reveal compounds that disrupt mitochondrial function in a substrate specific manner. […] Most frequently, these changes involved the use of different substrates to supply electrons from an alternative entry point in the chain. If a site of ROS production is being targeted selectively by a compound, then in many cases the supply of electrons should not influence the effectiveness of this compound at suppressing ROS production. […] The fluorescence values in each well were scaled in relation to the intra-plate DMSO and known inhibitor controls as in the high-throughput screen except that median values for local interspersed DMSO wells (3-6 wells) were used rather than just the 8 DMSO wells in columns 1 and 12. This normalization was applied in place of the two-way median polish used during high-throughput screening to minimize row and column effects. […] At this stage, strong candidates were not necessarily excluded from further testing if subtle off-target effects were observed (e.g. loss of specificity or signs of general inhibition at the highest concentrations). Rather, these candidates were often pursued for more detailed mechanistic studies with the expectation that subsequent structure activity analysis would provide insight into which structurally related compounds would provide the optimal specificity for a given site of production.

Assay [6] concerns mitochondrial membrane potential (ΔΨm). Briefly: Membrane potential (ΔΨm) counterscreen with TMRM. The note with it: malate, nigericin.
Description: Skeletal muscle mitochondria were isolated from 5-8 week old female Wistar rats (Harlan Laboratories). Minced muscle was homogenized in buffer containing bacterial protease Type VIII prior to differential centrifugation to separate mitochondria from other tissue components. Unless otherwise stated, freshly isolated muscle mitochondria were assayed in buffer containing 120 mM KCl, 5 mM HEPES, 1 mM EGTA, 0.3% (w/v) bovine serum albumin. Where indicated, CaCl2 was added to yield a final free concentration of 250 nM calcium at pH 7.0 at 37° C. Total and free calcium concentrations were calculated using the Extended MaxChelator program at http://maxchelator.stanford.edu.
Compounds were manually transferred from the Master Compound Plate to two black 96-well assay plates. A bulk solution was prepared containing the following components (final concentrations) and manually dispensed into the two ΔΨm assay plates: the potentiometric dye TMRM (5 μM), mitochondria (0.2 mg/mL), glutamate (5 mM), malate (5 mM), and nigericin (80 ng/mL).
The target in a further assay is T6, GPDH (Rattus norvegicus, UniProt P35571).
T6 construct: from tissue; host or cells: rat skeletal muscle mitochondria (Wistar, Harlan Laboratories)
T6 sequence (P35571 43-727): T4 sequence (P35571 43-727)
As to the kind of experiment: Retest of GPDH ROS production (expanded microplate panel / cuvette). The format is biochemical. The note with it: microplate or cuvette. The method, then: Compounds identified as site-selective hits as well as structural analogs were re-sourced from ChemBridge and dissolved in DMSO as 80 mM stocks. Master Titration Plates were prepared manually by serially diluting 80 mM compound stocks between 0.08 and 80 mM on 96-well microplates. Four compounds were titrated in duplicate on each plate. Additional DMSO controls were interspersed across these plates to serve as local normalization controls during analysis since two-way median polishing was not appropriate. Just prior to use, compounds were diluted 100-fold with standard buffer (10X). The same known inhibitor positive controls were included on each plate as during high-throughput screening.
The five core ROS assays and single ΔΨm assay were carried out as in the initial high-throughput screen. In addition, several assays were included to help validate the specificity of the compounds for a given site of production. All compounds were titrated against separate assays targeting IQ ROS and IIIQo ROS using subsaturating (0.5 mM final) succinate. […] Specifically, ΔΨm was monitored separately with 5 mM succinate (in the presence of 4 μM rotenone) in addition to glutamate and malate as before. The use of different substrates was designed to reveal compounds that disrupt mitochondrial function in a substrate specific manner.
Most frequently, these changes involved the use of different substrates to supply electrons from an alternative entry point in the chain. If a site of ROS production is being targeted selectively by a compound, then in many cases the supply of electrons should not influence the effectiveness of this compound at suppressing ROS production. […]
The fluorescence values in each well were scaled in relation to the intra-plate DMSO and known inhibitor controls as in the high-throughput screen except that median values for local interspersed DMSO wells (3-6 wells) were used rather than just the 8 DMSO wells in columns 1 and 12. […]

The next assay has as its system complex I. Briefly: Rate of NAD(P)H reduction via complex I versus observed ROS production. The format is biochemical, rat.
[7] abbreviates: Table 3, 5 mM glutamate, 5 mM malate, 4 μM rotenone, compounds 2.5 μM, percent change from DMSO, positive control −100%, read-out: % Reduction in ROS production (IF).
The mark [8] stands for this setting: Table 7, percent change in ROS from DMSO controls, read-out: IF.
Where [9] appears, read: Table 8, percent change in ROS from DMSO controls.
[10] abbreviates: Table 9, percent change in ROS from DMSO controls.
[11] abbreviates: Table 7, percent change in ROS from DMSO controls, read-out: IIIQO.
Setting [12] is: percent change in ROS from DMSO controls.
[13] abbreviates: Table 9, percent change in ROS from DMSO controls, read-out: IIIQo.
The mark [14] stands for this setting: Table 7, percent change in ROS from DMSO controls.

T1 sequence (Q5XIH3 21-464 limits assumed, one chain of several): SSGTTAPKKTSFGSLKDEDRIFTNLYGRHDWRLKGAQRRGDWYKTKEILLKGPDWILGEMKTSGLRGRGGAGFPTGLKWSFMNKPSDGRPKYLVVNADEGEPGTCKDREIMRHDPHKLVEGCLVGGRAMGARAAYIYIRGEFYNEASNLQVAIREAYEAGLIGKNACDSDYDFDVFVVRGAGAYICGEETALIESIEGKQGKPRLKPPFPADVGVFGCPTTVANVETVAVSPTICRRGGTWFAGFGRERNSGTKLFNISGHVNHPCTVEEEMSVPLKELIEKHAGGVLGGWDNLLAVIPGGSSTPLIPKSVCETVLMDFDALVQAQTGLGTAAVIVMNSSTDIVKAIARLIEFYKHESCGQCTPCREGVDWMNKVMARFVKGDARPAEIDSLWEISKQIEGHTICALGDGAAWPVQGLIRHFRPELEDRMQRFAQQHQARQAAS
T3 sequence (Q920L2 35-656): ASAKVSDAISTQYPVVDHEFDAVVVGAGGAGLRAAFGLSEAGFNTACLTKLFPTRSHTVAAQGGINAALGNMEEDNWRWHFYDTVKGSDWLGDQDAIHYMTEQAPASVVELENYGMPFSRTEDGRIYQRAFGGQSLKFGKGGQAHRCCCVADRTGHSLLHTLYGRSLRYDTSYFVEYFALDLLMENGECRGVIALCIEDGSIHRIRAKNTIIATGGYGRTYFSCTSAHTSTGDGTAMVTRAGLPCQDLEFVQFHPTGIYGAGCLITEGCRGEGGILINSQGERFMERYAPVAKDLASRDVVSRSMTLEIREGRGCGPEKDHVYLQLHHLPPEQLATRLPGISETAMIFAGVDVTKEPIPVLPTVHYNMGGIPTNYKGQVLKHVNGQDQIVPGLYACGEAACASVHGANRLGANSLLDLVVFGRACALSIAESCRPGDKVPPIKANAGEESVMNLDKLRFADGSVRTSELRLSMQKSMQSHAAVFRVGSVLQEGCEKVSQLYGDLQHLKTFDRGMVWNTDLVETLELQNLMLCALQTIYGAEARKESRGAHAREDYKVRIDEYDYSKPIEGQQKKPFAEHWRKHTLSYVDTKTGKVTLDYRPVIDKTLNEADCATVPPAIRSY
T3 sequence (P21913 31-282): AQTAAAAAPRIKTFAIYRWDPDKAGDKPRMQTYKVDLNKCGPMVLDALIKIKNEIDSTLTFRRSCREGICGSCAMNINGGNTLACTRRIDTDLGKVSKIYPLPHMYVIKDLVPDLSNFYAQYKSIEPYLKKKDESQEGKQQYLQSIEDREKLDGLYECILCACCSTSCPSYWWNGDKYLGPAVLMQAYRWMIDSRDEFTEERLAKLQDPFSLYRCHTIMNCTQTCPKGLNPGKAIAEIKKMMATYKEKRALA
T3 sequence (Q641Z9 30-169 limits assumed): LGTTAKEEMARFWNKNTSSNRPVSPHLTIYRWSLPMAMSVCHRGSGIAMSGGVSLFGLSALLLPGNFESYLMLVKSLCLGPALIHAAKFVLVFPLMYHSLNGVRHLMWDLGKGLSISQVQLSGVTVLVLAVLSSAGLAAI
T3 sequence (Q6PCT8 57-159): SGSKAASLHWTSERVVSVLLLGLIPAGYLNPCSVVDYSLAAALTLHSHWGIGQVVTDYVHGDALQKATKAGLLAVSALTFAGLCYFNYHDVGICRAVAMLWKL
T5 sequence (Q5XIH3 21-464 limits assumed): as the sequence (Q5XIH3 21-464 limits assumed, one chain of several) above

Take `O=C(O)C1CCCCC1C(=O)NC1CCCCCCC1` (stereo not shown) [Compound 30]: the IQ in assay [1] (Table 7), in assay [1] (Table 8) and in [1] (Table 9) was −0.7 each time. Moreover, the inhibition at 2.5 µM in [2] (setting [7]) is 36.9%; in assay [2] (setting [8]), 36.9%; in assay [3] (setting [11]) it was -0.1%; in [3] (setting [13]) it was -0.1%; in assay [4], -3.3%; on site IF (2.5 μM), 37%. For the same molecule, the IF in assay [2] (setting [9]) and in [2] (setting [10]) was −36.9 each time. Moreover, the IIIQO in [3] (setting [12]) is listed as 0.1. Also, the SDH in assay [4] (Table 8) and in assay [4] (Table 9) was 3.3 throughout. In addition, the inhibition in [5] (setting [14]) was -0.7%. Besides, the GPDH in assay [5] (setting [9]) and in assay [5] (setting [10]) was 0.7 each time. For the same molecule, the ΔΨm in assay [6] (Table 8, glutamate) is −1.0; in assay [6] (Table 9, glutamate), −1.0.
Consider `CN(C)CCCN(CCCN(C)C)Cc1cccnc1` [Compound 33], for which the IQ in [1] (Table 7), in [1] (Table 8) and in [1] (Table 9) was −0.5 in each case. In addition, the inhibition at 2.5 µM is 3% in assay [2] (setting [7]), 3% in assay [2] (setting [8]), -6.1% in assay [3] (setting [11]) and -6.1% in assay [3] (setting [13]). Also, the IF in [2] (setting [9]) and in assay [2] (setting [10]) was −3.0 each time. This molecule also registered an IIIQO in [3] (setting [12]) of 6.1. The inhibition in assay [5] (setting [14]) worked out at 12.7%. In addition, the GPDH in assay [5] (setting [9]) and in assay [5] (setting [10]) was −12.7 throughout. Further, the “effect on IF ROS and selectivity for site IF” value at site IF was “further improved selectivity for IF without compromising ΔΨm”. For the same molecule, the ΔΨm is 0.4 in assay [6] (Table 8, glutamate) and 0.4 in [6] (Table 9, glutamate).
As to `O=C(O)CCC(=O)Nc1ccc(-c2nc3ccccc3o2)cc1` [Compound 50], the IQ in assay [1] (Table 7), in assay [1] (Table 8) and in [1] (Table 9) was 0.8 each time. In addition, the inhibition at 2.5 µM in assay [2] (setting [8]) was 2.6%; in assay [3] (setting [11]) it was -2.5%; in assay [3] (setting [13]), -2.5%; in [4], -2.1%; in [5] (Table 6, 25 mM glycerol phosphate, rotenone, antimycin A, malonate, myxothiazol, compounds 2.5 μM, scaled to IQ positive controls, read-out: % Reduction in ROS Production (GPDH)), 12.2%. In addition, the IF in [2] (setting [9]) and in assay [2] (setting [10]) was −2.6 in each case. In assay [3] (setting [12]), this molecule yielded an IIIQO of 2.5. The SDH in assay [4] (Table 8) and in assay [4] (Table 9) was 2.1 in each case. For the same molecule, in [5] (setting [14]), the inhibition came to 12.2%. Also, the GPDH in [5] (setting [9]) and in assay [5] (setting [10]) was −12.2 throughout. On GPDH, the “effect on GPDH ROS on retesting” value is “retested well as selective inhibitors of GPDH ROS”. For the same molecule, the ΔΨm in assay [6] (Table 8, glutamate) turned out to be 0.8; in assay [6] (Table 9, glutamate), 0.8.
As to `COc1ccc(/C=C2\C(=O)NC(=S)N(c3ccccc3)C2=O)cc1Br` [Compound 52], in assay [1] (Table 7), the IQ is recorded as −0.2. Moreover, the inhibition at 2.5 µM is 2.2% in assay [2] (setting [8]); 0.4% in assay [3] (read-out: IIIQO); -4.6% in assay [4]; 0% in assay [5] (Table 7, percent change in ROS from DMSO controls, read-out: GPDH); 14.6% in assay [5] (read-out: % Reduction in ROS Production (GPDH)). In addition, the “effect on GPDH ROS on retesting” value on GPDH is “did not show any effect on GPDH when retested”.
On to `N#CC(C#N)=NNc1ccc(OC(F)(F)F)cc1` [FCCP], for which, in the assay on complex I, the “effect on rates of NADH reduction and ROS production” value is given as “progressively inhibited both activities; also recorded: suppresses observed ROS to near zero”.
Take `C=C(C)[C@H]1Cc2c(ccc3c2O[C@@H]2COc4cc(OC)c(OC)cc4[C@@H]2C3=O)O1` [rotenone]: the “effect on rates of NADH reduction and ROS production” value with complex I (succinate with low glutamate, range of concentrations) was “progressively inhibited both activities”; with complex I (succinate with low glutamate, range of concentrations, listed as Rotenone), “eliminates all IQ ROS production but not that from underlying IF and IIIQo”.
